How the values were obtained:
CD-3e+ T-cells = test: Flow cytometry viability; type: cell-based, mouse; settings: 4 hours; for sensitivity of T-cells (viability) compared to other cell populations: 15 nM to 100 μM
[1] = test system: normal immune cells (splenocyte immune cell subpopulations); settings: 15 nM to 100 μM, 4 hours

Row | SMILES | sensitivity of T-cells (viability) compared to other cell populations (CD-3e+ T-cells) | toxicity to normal immune cells (viability) [1] | IC50 (viability) (CD-3e+ T-cells; T-cells, highest concentration of 100 μM, 36 strains)
1 | CC(=O)[C@]1(O)Cc2c(O)c3c(c(O)c2[C@@H](O[C@H]2C[C@H](N)[C@H](O)[C@H](C)O2)C1)C(=O)c1ccccc1C3=O [idarubicin] | less sensitive than B-cells | – | –
2 | Cn1c(=O)n(-c2ccc(C(C)(C)C#N)cc2)c2c3cc(-c4cnc5ccccc5c4)ccc3ncc21 [BEZ-235] | less sensitive and less variable | less toxic to normal immune cells than the anthracycline agents | –
3 | COc1cccc2c1C(=O)c1c(O)c3c(c(O)c1C2=O)C[C@@](O)(C(=O)CO)C[C@@H]3O[C@H]1C[C@H](N)[C@H](O)[C@H](C)O1 [doxorubicin] | least sensitive | – | few strains reaching the IC50 at the highest concentration of 100 μM
4 | Cn1cnc2c(F)c(Nc3ccc(Br)cc3Cl)c(C(=O)NOCCO)cc21 [selumetinib] | less sensitive and less variable | less toxic to normal immune cells than the anthracycline agents | –

— article PMC4397719 (Pharmacogenomics and Personalized Medicine, 2015)
